Reference: US20240400576A1, “NITROGEN-CONTAINING DERIVATIVES OF SALINOMYCIN, SYNTHESIS AND USES THEREOF” (Centre National de la Recherche Scientifique, priority 2021, published 2024)
Read-outs that look alike come from different tables or passages of the source.

Experiments:
[1] = test system: HMLER CD24^low/CD44^high cells; assay: Cell viability assay (CellTiter-Blue, 72 h) in HMLER breast cancer stem cell model; format: cell-based, human; details: for Selectivity: ratio of the IC50 ID2 to the IC50 HMLER; for IC50: Homo sapiens
Procedure: (§1) The compounds have been evaluated against a model of breast cancer stem cells (HMLER) and matching non-stem cells (namely ID2 of HIMLER CD24^high/CD4^high/low), and in MCF10A cells (normal breast cell line).
(§2) Each IC50 value was determined in biological triplicate (three independent biological experiments), and each triplicate was determined in at least technical duplicate.
HMLER cells naturally repressing E-cadherin, obtained from human mammary epithelial cells infected with a retrovirus carrying hTERT, SV40, and the oncogenic allele H-rasV12, were cultured in DMEM/F12 (Gibco, 31331-028) supplemented with 10% FBS, 10 μg/mL insulin (Sigma-Aldrich, 10516), 0.5 ug/mL hydrocortisone (Sigma-Aldrich, H0888), and 0.5 ug/mL puromycin (Life Technologies, A11138-02); cells were a generous gift from Alain Puisieux (INSERM). All cells were incubated at 37° C. with 5% CO2. HMLER CD44low/high cells stained with CD24-APC and CD44-PE antibodies were sorted by FACS using an Aria Ilu (BD Biosciences) to obtain isolated CD24^low/CD44^high and CD24^high/CD44^low cell populations. HMLER CD24^low/CD44^high cells were supplemented with 10 ng/ml human epidermal growth factor (EGF, Miltenyi Biotec, 130-093-750, 100 ng/ml), while HMLER CD24^high/CD44^low cells were grown without EGF. MCF10A cells (ATCC, CRL-10317) were cultured in DMEM/F12 supplemented with 10% horse serum (Invitrogen, 16050-122), 10 μg/mL insulin, 10 ng/ml EGF, 0.5 μg/mL hydrocortisone, 100 ng/ml cholera toxin (Sigma-Aldrich, C8052), and 1× PenStrep (Invitrogen, 15070-063).
The cell viability assay was carried out by plating 1000 cells per well in 96-well plates. The cells were treated for 72 h in a range between 12 nM and 50 µM or 0.3 nM and 4 μM using serial dilutions following the manufacturer's protocol. Very briefly, the CellTiter-Blue reagent (G8081, Promega) was added to the wells after 72 h of treatment, and cells were incubated for 3 h before fluorescence intensities (λex=560/20 nm; λem=590/10 nm) were recorded using a PerkinElmer Wallac 1420 Victor2 microplate reader. The IC50 cell viability curves were plotted using the Prism 8 software for the synthesized compounds against HMLER CD24^low/CD44^high and the isogenic cell line HMLER CD24^high/CD44^low.
All derivatives were assessed for their antiproliferative activity and selectivity toward a well-established model of mesenchymal CSCs (HMLER CD24^low/CD44^high) together with their epithelial counterparts (HMLER CD24^high/CD44^low) lacking CSC properties. […] Specifically, compounds 6, 8, and 9 were identified to be particularly interesting in this context, with IC50 values of 30, 3, and 9 nM, respectively, together with their outstanding selectivities (Sls between 20.0 and 90.0).

[2] = test system: ID2 (HMLER CD24^high/CD44^low) cells; assay: Cell viability assay (CellTiter-Blue, 72 h) in ID2 matching non-stem cells; format: cell-based; details: Homo sapiens, read-out: ID2 cancer cells (IC50, μM)
Procedure: as §1
Each IC50 value was determined in biological triplicate (three independent biological experiments), and each triplicate was determined in at least technical duplicate. […]
(§3) The cell viability assay was carried out by plating 1000 cells per well in 96-well plates. […] Very briefly, the CellTiter-Blue reagent (G8081, Promega) was added to the wells after 72 h of treatment, and cells were incubated for 3 h before fluorescence intensities (λex=560/20 nm; λem=590/10 nm) were recorded using a PerkinElmer Wallac 1420 Victor2 microplate reader. […]
All derivatives were assessed for their antiproliferative activity and selectivity toward a well-established model of mesenchymal CSCs (HMLER CD24^low/CD44^high) together with their epithelial counterparts (HMLER CD24^high/CD44^low) lacking CSC properties. […]

MCF10A cells = assay: Cell viability assay (CellTiter-Blue, 72 h) in MCF10A normal breast cell line; format: cell-based; details: Homo sapiens, MCF-10A, read-out: MCF10A (IC50, μM)
Procedure: as §1, §2
HMLER cells naturally repressing E-cadherin, obtained from human mammary epithelial cells infected with a retrovirus carrying hTERT, SV40, and the oncogenic allele H-rasV12, were cultured in DMEM/F12 (Gibco, 31331-028) supplemented with 10% FBS, 10 μg/mL insulin (Sigma-Aldrich, 10516), 0.5 ug/mL hydrocortisone (Sigma-Aldrich, H0888), and 0.5 ug/mL puromycin (Life Technologies, A11138-02); cells were a generous gift from Alain Puisieux (INSERM). All cells were incubated at 37° C. with 5% CO2. […]
as §3

[3] = cell viability, 72 h treatment, CellTiter-Blue, biological triplicate, read-out: HMLER cancer cells (IC50)
[4] = 72 h, read-out: HMLER cancer cells (IC50, μM)

Row | Compound | Selectivity [1] | also measured
1 | CCN[C@H]1C=C[C@]2(O[C@H]([C@@H](CC)C(=O)[C@@H](C)[C@@H](O)[C@H](C)[C@@H]3O[C@@H]([C@@H](CC)C(=O)[O-])CC[C@@H]3C)[C@@H](C)C[C@H]2C)O[C@@]12CC[C@@](C)([C@H]1CC[C@](O)(CC)[C@H](C)O1)O2.[Na+] [Compound 1] | 6.1 | 
2 | CCCN[C@H]1C=C[C@]2(O[C@H]([C@@H](CC)C(=O)[C@@H](C)[C@@H](O)[C@H](C)[C@@H]3O[C@@H]([C@@H](CC)C(=O)[O-])CC[C@@H]3C)[C@@H](C)C[C@H]2C)O[C@@]12CC[C@@](C)([C@H]1CC[C@](O)(CC)[C@H](C)O1)O2.[Na+] [Compound 2] | 10.1 | 
3 | CCCCN[C@H]1C=C[C@]2(O[C@H]([C@@H](CC)C(=O)[C@@H](C)[C@@H](O)[C@H](C)[C@@H]3O[C@@H]([C@@H](CC)C(=O)[O-])CC[C@@H]3C)[C@@H](C)C[C@H]2C)O[C@@]12CC[C@@](C)([C@H]1CC[C@](O)(CC)[C@H](C)O1)O2.[Na+] [Compound 3] | 15.2 | 
4 | CC[C@@H](C(=O)[C@@H](C)[C@@H](O)[C@H](C)[C@@H]1O[C@@H]([C@@H](CC)C(=O)[O-])CC[C@@H]1C)[C@H]1O[C@]2(C=C[C@H](NCC(C)C)[C@]3(CC[C@@](C)([C@H]4CC[C@](O)(CC)[C@H](C)O4)O3)O2)[C@H](C)C[C@@H]1C.[Na+] [Compound 4] | 11.0 | 
5 | CCCCCN[C@H]1C=C[C@]2(O[C@H]([C@@H](CC)C(=O)[C@@H](C)[C@@H](O)[C@H](C)[C@@H]3O[C@@H]([C@@H](CC)C(=O)[O-])CC[C@@H]3C)[C@@H](C)C[C@H]2C)O[C@@]12CC[C@@](C)([C@H]1CC[C@](O)(CC)[C@H](C)O1)O2.[Na+] [Compound 5] | 10.8 | 
6 | CCCCCCN[C@H]1C=C[C@]2(O[C@H]([C@@H](CC)C(=O)[C@@H](C)[C@@H](O)[C@H](C)[C@@H]3O[C@@H]([C@@H](CC)C(=O)[O-])CC[C@@H]3C)[C@@H](C)C[C@H]2C)O[C@@]12CC[C@@](C)([C@H]1CC[C@](O)(CC)[C@H](C)O1)O2.[Na+] [Compound 6] | 24.7 | IC50 [1, 3]: 0.03 ± 0.01 µM
7 | CCCCCCCCCCCCN[C@H]1C=C[C@]2(O[C@H]([C@@H](CC)C(=O)[C@@H](C)[C@@H](O)[C@H](C)[C@@H]3O[C@@H]([C@@H](CC)C(=O)[O-])CC[C@@H]3C)[C@@H](C)C[C@H]2C)O[C@@]12CC[C@@](C)([C@H]1CC[C@](O)(CC)[C@H](C)O1)O2.[Na+] [Compound 7] | 4.1 | 
8 | CC[C@@H](C(=O)[C@@H](C)[C@@H](O)[C@H](C)[C@@H]1O[C@@H]([C@@H](CC)C(=O)[O-])CC[C@@H]1C)[C@H]1O[C@]2(C=C[C@H](N(CC)CC)[C@]3(CC[C@@](C)([C@H]4CC[C@](O)(CC)[C@H](C)O4)O3)O2)[C@H](C)C[C@@H]1C.[Na+] [Compound 8] | 90.0 | IC50 [1, 3]: 0.003 ± 0.0005 µM
9 | CCCN(CCC)[C@H]1C=C[C@]2(O[C@H]([C@@H](CC)C(=O)[C@@H](C)[C@@H](O)[C@H](C)[C@@H]3O[C@@H]([C@@H](CC)C(=O)[O-])CC[C@@H]3C)[C@@H](C)C[C@H]2C)O[C@@]12CC[C@@](C)([C@H]1CC[C@](O)(CC)[C@H](C)O1)O2.[Na+] [Compound 9] | 20.0 | IC50 [1, 3]: 0.009 ± 0.0002 µM
10 | CCCCN(CCCC)[C@H]1C=C[C@]2(O[C@H]([C@@H](CC)C(=O)[C@@H](C)[C@@H](O)[C@H](C)[C@@H]3O[C@@H]([C@@H](CC)C(=O)[O-])CC[C@@H]3C)[C@@H](C)C[C@H]2C)O[C@@]12CC[C@@](C)([C@H]1CC[C@](O)(CC)[C@H](C)O1)O2.[Na+] [Compound 10] | 7.6 | 
11 | CCCCCN(CCCCC)[C@H]1C=C[C@]2(O[C@H]([C@@H](CC)C(=O)[C@@H](C)[C@@H](O)[C@H](C)[C@@H]3O[C@@H]([C@@H](CC)C(=O)[O-])CC[C@@H]3C)[C@@H](C)C[C@H]2C)O[C@@]12CC[C@@](C)([C@H]1CC[C@](O)(CC)[C@H](C)O1)O2.[Na+] [Compound 11] | 7.7 | 
12 | CCCCCCN(CCCCCC)[C@H]1C=C[C@]2(O[C@H]([C@@H](CC)C(=O)[C@@H](C)[C@@H](O)[C@H](C)[C@@H]3O[C@@H]([C@@H](CC)C(=O)[O-])CC[C@@H]3C)[C@@H](C)C[C@H]2C)O[C@@]12CC[C@@](C)([C@H]1CC[C@](O)(CC)[C@H](C)O1)O2.[Na+] [Compound 12] | 13.3 | 
13 | CCCCCCCCCCCCN(CCCCCCCCCCCC)[C@H]1C=C[C@]2(O[C@H]([C@@H](CC)C(=O)[C@@H](C)[C@@H](O)[C@H](C)[C@@H]3O[C@@H]([C@@H](CC)C(=O)[O-])CC[C@@H]3C)[C@@H](C)C[C@H]2C)O[C@@]12CC[C@@](C)([C@H]1CC[C@](O)(CC)[C@H](C)O1)O2.[Na+] [Compound 13] | 5.2 | 
14 | CC[C@@H](C(=O)[C@@H](C)[C@@H](O)[C@H](C)[C@@H]1O[C@@H]([C@@H](CC)C(=O)[O-])CC[C@@H]1C)[C@H]1O[C@]2(C=C[C@H](NCc3ccccc3)[C@]3(CC[C@@](C)([C@H]4CC[C@](O)(CC)[C@H](C)O4)O3)O2)[C@H](C)C[C@@H]1C.[Na+] [Compound 14] | 6.2 | 
15 | CC[C@@H](C(=O)[C@@H](C)[C@@H](O)[C@H](C)[C@@H]1O[C@@H]([C@@H](CC)C(=O)[O-])CC[C@@H]1C)[C@H]1O[C@]2(C=C[C@H](NCc3ccc(O)cc3)[C@]3(CC[C@@](C)([C@H]4CC[C@](O)(CC)[C@H](C)O4)O3)O2)[C@H](C)C[C@@H]1C.[Na+] [Compound 15] | 12.4 | 
16 | CC[C@@H](C(=O)[C@@H](C)[C@@H](O)[C@H](C)[C@@H]1O[C@@H]([C@@H](CC)C(=O)[O-])CC[C@@H]1C)[C@H]1O[C@]2(C=C[C@H](NCc3ccc(C)cc3)[C@]3(CC[C@@](C)([C@H]4CC[C@](O)(CC)[C@H](C)O4)O3)O2)[C@H](C)C[C@@H]1C.[Na+] [Compound 16] | 12.7 | 
17 | CC[C@@H](C(=O)[C@@H](C)[C@@H](O)[C@H](C)[C@@H]1O[C@@H]([C@@H](CC)C(=O)[O-])CC[C@@H]1C)[C@H]1O[C@]2(C=C[C@H](NCc3ccc(F)cc3)[C@]3(CC[C@@](C)([C@H]4CC[C@](O)(CC)[C@H](C)O4)O3)O2)[C@H](C)C[C@@H]1C.[Na+] [Compound 17] | 10.2 | 
18 | CC[C@@H](C(=O)[C@@H](C)[C@@H](O)[C@H](C)[C@@H]1O[C@@H]([C@@H](CC)C(=O)[O-])CC[C@@H]1C)[C@H]1O[C@]2(C=C[C@H](NCc3ccc(Cl)cc3)[C@]3(CC[C@@](C)([C@H]4CC[C@](O)(CC)[C@H](C)O4)O3)O2)[C@H](C)C[C@@H]1C.[Na+] [Compound 18] | 11.0 | 
19 | C#CCN(CC#C)[C@H]1C=C[C@]2(O[C@H]([C@@H](CC)C(=O)[C@@H](C)[C@@H](O)[C@H](C)[C@@H]3O[C@@H]([C@@H](CC)C(=O)O)CC[C@@H]3C)[C@@H](C)C[C@H]2C)O[C@@]12CC[C@@](C)([C@H]1CC[C@](O)(CC)[C@H](C)O1)O2 [Compound 19, C20-epi-dipropargyloaminosalinomycin] | 3.5 | IC50 [1, 4]: 2.4 µM; IC50 [2]: 8.43 µM
20 | CC[C@@H](C(=O)[C@@H](C)[C@@H](O)[C@H](C)[C@@H]1O[C@@H]([C@@H](CC)C(=O)O)CC[C@@H]1C)[C@H]1O[C@]2(C=C[C@@H](O)[C@]3(CC[C@@](C)([C@H]4CC[C@](O)(CC)[C@H](C)O4)O3)O2)[C@H](C)C[C@@H]1C [Salinomycin] | 3.1 | IC50 [1, 4]: 1.39 ± 0.1 µM; IC50 (MCF10A cells): 1.13 ± 0.14 µM; IC50 [2]: 4.36 ± 0.5 µM
